The IC50 is the point on the concentration scale where inhibition reaches its midpoint.

One assay relates to MCF-7. Briefly: In vitro anti-proliferative activity, MTT assay. The format is cell-based. Conditions: Homo sapiens, MCF7, 48 h, read-out: In vitro IC50 (nM) Mean ± SD MCF-7.
Another assay addresses CDK2/cyclin A2 (Homo sapiens, UniProt P24941). Briefly: CDK2/cyclin A2 Kinase-Glo Plus luminescence kinase assay. A general note: Kinase-Glo measures the ATP left after a reaction by luminescence.

Molecules are shown by their SMILES.

Regarding `Cc1ccc(NCC(=O)n2ncc3c2ncn2[nH]c(=S)nc32)cc1` [Compound 7, 1-(2-Thioxo-2,3-dihydro-7H-pyrazolo[4,3-e][1,2,4]triazolo[1,5-c]pyrimidin-7-yl)-2-(p-tolylamino)ethan-1-one], in the assay on MCF-7, the IC50 is 951 ± 33 nM.

For `COC(CSc1nc2c3cnn(C(=O)CNc4ccc(C)cc4)c3ncn2n1)OC` [Compound 9, 1-(2-((2,2-Dimethoxyethyl)thio)-7H-pyrazolo[4,3-e][1,2,4]triazolo[1,5-c]pyrimidin-7-yl)-2-(p-tolylamino)ethan-1-one], the IC50 in the assay with MCF-7 is 95 ± 4 nM.

As to `CC(=O)OCCSc1nc2c3cnn(C(=O)CNc4ccc(C)cc4)c3ncn2n1` [Compound 13, 2-((7-(p-Tolylglycyl)-7H-pyrazolo[4,3-e][1,2,4]triazolo[1,5-c]pyrimidin-2-yl)thio)ethyl acetate], the IC50 with MCF-7 was 59 ± 0.94 nM; on CDK2/cyclin A2 it was 81 ± 4 nM.

As for `Cc1ccc(NCC(=O)n2ncc3c(=N)n(N)cnc32)cc1` [Compound 4, 1-(5-Amino-4-imino-4,5-dihydro-1H-pyrazolo[3,4-d]pyrimidin-1-yl)-2-(p-tolylamino)ethan-1-one], the IC50 in the assay on MCF-7 is 79 ± 1.4 nM.

Regarding `Cc1ccc(NCC(=O)n2ncc3c(=N)n(N[C@@H]4OC[C@@H](O)[C@H](O)[C@H]4O)cnc32)cc1` [Compound 6, 1-(4-Imino-5-((β-D-xylopyranosyl)amino)-4,5-dihydro-1H-pyrazolo[3,4-d]pyrimidin-1-yl)-2-(p-tolylamino)ethan-1-one], the IC50 in the assay with MCF-7 came to 552 ± 23 nM.

On to `Cc1ccc(NCC(=O)n2ncc3c2ncn2nc(SCC#N)nc32)cc1` [Compound 8, 2-((7-(p-Tolylglycyl)-7H-pyrazolo[4,3-e][1,2,4]triazolo[1,5-c]pyrimidin-2-yl)thio)acetonitrile], for which the IC50 in the assay on MCF-7 amounted to 53 ± 2.7 nM; on CDK2/cyclin A2 it was 589 ± 33 nM.

In the case of `CC(=O)OCC(CSc1nc2c3cnn(C(=O)CNc4ccc(C)cc4)c3ncn2n1)OC(C)=O` (stereo not shown) [Compound 11, 3-((7-(p-Tolylglycyl)-7H-pyrazolo[4,3-e][1,2,4]triazolo[1,5-c]pyrimidin-2-yl)thio)propane-1,2-diyl diacetate], the IC50 in the assay on MCF-7 is 91 ± 4.2 nM; on CDK2/cyclin A2, 3650 ± 203 nM.

For `Cc1ccc(NCC(=O)n2ncc3c(=N)n(N[C@@H]4O[C@H](CO)[C@@H](O)[C@H](O)[C@H]4O)cnc32)cc1` [Compound 5, 1-(4-Imino-5-((β-D-glucopyranosyl)amino)-4,5-dihydro-1H-pyrazolo[3,4-d]pyrimidin-1-yl)-2-(p-tolylamino)ethan-1-one], the IC50 in the assay with MCF-7 was found to be 88 ± 0.99 nM; on CDK2/cyclin A2 it was 1020 ± 57 nM.

`Cc1ccc(NCC(=O)n2ncc3c2ncn2nc(SCCO)nc32)cc1` [Compound 12, 1-(2-((2-Hydroxyethyl)thio)-7H-pyrazolo[4,3-e][1,2,4]triazolo[1,5-c]pyrimidin-7-yl)-2-(p-tolylamino)ethan-1-one]: the IC50 in the assay on MCF-7 is 97 ± 1.7 nM.

As for `CNC(=O)c1cc(Oc2ccc(NC(=O)Nc3ccc(Cl)c(C(F)(F)F)c3)cc2)ccn1` [Sorafenib, reference compound], the IC50 in the assay on MCF-7 was 144 ± 0.47 nM.

As for `Cc1ccc(NCC(=O)n2ncc3c2ncn2nc(SCC(O)CO)nc32)cc1` (stereo not shown) [Compound 10, 1-{2-[(2,3-Dihydroxypropyl)thio]-7H-pyrazolo[4,3-e][1,2,4]triazolo[1,5-c]pyrimidin-7-yl}-2-(p-tolylamino)ethan-1-one], the IC50 worked out at 53 ± 2.1 nM in the assay on MCF-7 and 336 ± 19 nM on CDK2/cyclin A2.
